Experimental findings from patent US5633277A, “Sulfonamide aminomethylene derivatives as immunosuppressants” (Miles Inc., priority 1995, dated 1997) are described below.

One assay addresses FKBP (Homo sapiens, UniProt P62942). The assay is described as follows: PPIase Inhibition Assay. The class given is biochemical. On the procedure:
1) Inhibition of PPlase Activity
This assay follows in principle the procedure described in Kofron et al., 1991, Biochemistry 30:6127. The three main reagents used are PPIase, a substrate for PPIase, and a selected inhibitor compound of the present invention. The basic principle behind this assay is the conversion of the cis isomer of the substrate to the trans form, which conversion is catalyzed by PPIase. Essentially, inhibition of this PPIase activity is measured for the selected compounds. A peptide chymotrypsin substrate containing a proline in the P2 position is only cleaved by chymotrypsin when the Phe-Pro bond is in the trans isomeric configuration. In the presence of excess chymotrypsin, all of the trans peptide isomers are cleaved within approximately five seconds, leaving only cis forms.
The cis peptide will spontaneously convert to the trans isomer at a slow rate. The cis to trans conversion is catalyzed by isomerases at a much faster rate than this spontaneous conversion. Proteins with PPIase activity are examples of such isomerases. After isomerization, the peptide is cleaved by chymotrypsin releasing p-nitroaniline which can be monitored at 390 nm. The rate of release is then calculated using a first order rate plus offset equation utilizing the ENZFITTER program (Leatherbarrow, BIOSOFT, Cambridge, United Kingdom).
In a plastic cuvette are added 950 ul of ice cold assay buffer (25 mM HEPES, pH 7.8, 100 mM NaCl), 10 uL of FKBP (2.5 uM in 10 mM Tris-Cl pH 7.5,100 mM NACl, 1 mM dithiothreitol), 25 ul of chymotrypsin (50 mg/ml in 1 mM HCl) and 10 ul of the test compound at various concentrations in dimethyl sulphoxide. The reaction is initiated by addition of 5 ul of substrate (Succinyl-Ala-Phe-Pro-Phe-para-nitroanilide, 5 mg/ml in 235 mM LiCl in trifluoroethanol).
The absorbance at 390 nm versus time is monitored for 90 sec using a Beckman DU70 spectrophotometer. The absorbance versus time data files are transferred to an IBM XT computer and the rate constants determined using the commercial Enzfitter program. For each set of data, the uncatalyzed rate of conversion is measured and the uninhibited enzymatic rate determined. The data are expressed as % Inhibition and are calculated as follows: [formula] where kobs is the rate in the presence of a selected test compound, kuncat is the rate in the absence of enzyme, and kuninh is the rate in the presence of enzyme and absence of inhibitor. Data are plotted as percent inhibition versus concentration of inhibitor. The values of the concentration of inhibitor required for 50% inhibition of enzyme activity (IC50) were determined by nonlinear least squares regression analysis.

For assay [1], the system named is Lewis rats sensitized with Complete Freund's adjuvant. The assay is described as follows: Adjuvant Arthritis Model in the Rat. The class given is in vivo. To be noted: uninjected hind paw, day 0 to day 16, 10 mg/kg/dose i.p. The source says:
Rats sensitized to mycobacterial antigens in Complete Freund's Adjuvant can develop a rapidly destructive adjuvant arthritis. Adjuvant arthritis appears to be an autoimmune disease. Thus, T lymphocytes from immunized donors can transfer the disease to naive recipients (Pearson and Wood, 1964, J. Exp. Med. 120:547.) and susceptibility is controlled, at least in part, by class II MHC genes (Batisto, et al. 1982, Arthritis Rheum. 25:1194).
Adjuvant Arthritis Model in the Rat
Complete Freund's adjuvant is made by supplementing extra heavy mineral oil with 10 mg/ml heat killed Mycobacterium butyricum (Difco Laboratories, Detroit, Mich.). Lewis rats (Charles Rivers, Willmington, Mass.) are given a 0. 1 ml injection of adjuvant (1 mg/animal mycobacterium) subcutaneously into the right hind footpad. In the injected foot, an acute inflammatory reaction occurs which is characterized by erythema, edema and a predominantly neutrophilic cell infiltrate. This is followed by edema in the uninjected contralateral foot by days 10-12. This secondary response is accompanied by a predominantly mononuclear cell infiltrate, indicating the presence of cell-mediated immunity.
The immune response is quantitated by measuring the change in ankle diameter of the uninjected hind paw from day 0 to day 16 post sensitization. This is accomplished using a hand-held dial micrometer. […]

A value given as a limit tells only on which side of the number the result lay.

Sequence of FKBP (P62942 whole entry): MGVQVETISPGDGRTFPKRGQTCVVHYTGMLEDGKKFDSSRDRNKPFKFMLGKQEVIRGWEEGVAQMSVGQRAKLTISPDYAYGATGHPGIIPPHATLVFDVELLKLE

On FKBP, `CC(C)C[C@@H](CN1CCC[C@H]1C(=O)NCCCCc1ccccc1)NS(=O)(=O)c1ccc(-c2ccon2)s1` [Example 8, 1-[2-(S)-(5 - [Isoxazol-25-yl]-thiophene-2-sulfonylamino)-4-methylpentyl]-L-proline 4-Phenylbutylamide] yielded an IC50 greater than 5 µM. In turn, `CC[C@H](C)[C@H](NC(=O)[C@@H]1CCCCN1C[C@@H](NS(C)(=O)=O)[C@@H](C)CC)C(=O)NCc1ccccc1` [Example 11] displayed an IC50 on FKBP greater than 5 µM. On to `CC(C)C[C@@H](CN1CCC[C@H]1C(=O)NCCCCc1ccccc1)NS(=O)(=O)/C=C/c1ccccc1` [Example 6, 1-[2-(S)-(2-phenyl-ethenesulfonylamino)-4-methylpentyl]-L-proline 4-Phenylbutylamtde], for which the IC50 at FKBP was greater than 5 µM. Still for that read-out and setting: for `CC(C)C[C@@H](CN1CCC[C@H]1C(=O)NCCCCc1ccccc1)NS(=O)(=O)c1cccs1` [Example 5, 1-[2-(S)-(Thiophene-2-sulfonylamino)-4-methylpentyl]-L-proline 4-Phenylbutylamide] the value was greater than 5 µM. On FKBP, `CC(C)C[C@@H](CN1CCC[C@H]1C(=O)NCCCCc1ccccc1)NS(C)(=O)=O` [Example 1, 1-[2-(S)-Methanesulfonylamino-4-methylpentyl]-L-proline 4-Phenylbutylamide] gave an IC50 of 3.5 µM. The “Δ Ankle Diameter” value in assay [1] is listed as 1.6 ± 0.6 mm. Moreover, in assay [1] (vs vehicle control), the “% Inhibition (of ankle swelling)” value was found to be 51%. On to `CC(=O)Nc1nc(C)c(S(=O)(=O)N[C@@H](CC(C)C)CN2CCC[C@H]2C(=O)NCCCCc2ccccc2)s1` [Example 4, 1-[2-(S)-(2-Acetylamino-4-methyl-S-thiazolesulfonylamino)-4-methylpentyl]-L -proline 4-Phenylbutylamide], for which the IC50 against FKBP was greater than 5 µM. For `Cc1ccc(S(=O)(=O)N[C@@H](CC(C)C)CN2CCC[C@H]2C(=O)NCCCCc2ccccc2)cc1` [Example 2, 1-[2-(S)-(Toluene-4-sulfonylamino)-4-methylpentyl]-L-proline 4-Phenylbutylamide], the IC50 against FKBP is greater than 5 µM. On the same count and under the same terms, then `CC(C)C[C@@H](CN1CCC[C@H]1C(=O)NCCCCc1ccccc1)NS(=O)(=O)c1cccc2cccnc12` [Example 3, 1-[2-(S)-(Quinoline-8-sulfonylamino)-4-methylpentyl]-L-proline 4-Phenylbutylamide], with greater than 5 µM; and `CC(C)C[C@@H](CN1CCC[C@H]1C(=O)NCCCCc1ccccc1)NS(=O)(=O)CC12CCC(CC1=O)C2(C)C` (single isomer, unassigned) [Example 7], with greater than 5 µM. The same measure, in the same setting: then `CC(C)C[C@@H](CN1CCC[C@H]1C(=O)NCCCCc1ccccc1)NS(=O)(=O)c1c(C(C)C)cc(C(C)C)cc1C(C)C` [Example 10, 1-[2-(S)-(2',4',6'-Triisopropylbenzenesulfonylamino)-4-methylpentyl]-L-proline 4-Phenylbutylamide], with greater than 5 µM.

In general, IC50 refers to the concentration at which inhibition is half-maximal. High values mean a need for much substance, low ones inhibition by little substance.
